Laboratory results from patent EP4786487A1, “PEPTIDE” (Peptidream Inc, priority 2023, dated 2025).
Like-named read-outs stand apart in the source and are kept apart here. Starred links: 1 amine or outer side, 2 acyl side, 3 side chain; linkers in the order of their positions; H or OH if unused. Positions of bridges follow the written chain, without caps; N, C: chain ends. Non-standard residues stand in square brackets, D forms with d. Residues, ends and D or L forms follow the SMILES beside them. Groups on a side chain read outwards from the residue. *: point of attachment. X10 = O=C([C@H](Cc1cn(Cc2ccccc2)c2ccccc12)N[*:1])[*:2]; Phe(3-OCH2COOH) = N[C@@H](Cc1cccc(OCC(=O)O)c1)C(=O)O; Phe(4-COOH) = N[C@@H](Cc1ccc(C(=O)O)cc1)C(=O)O; Piperazinyl(4-CH2COOH) = O=C(O)CN1CCN(*)CC1; Gly(decyl) = CCCCCCCCCC[C@H](N)C(=O)O; NMeY = CN[C@@H](Cc1ccc(O)cc1)C(=O)O; X1 = CCCCCCC[C@H](N[*:1])C(=O)[*:2]; NMeF = CN[C@@H](Cc1ccccc1)C(=O)O; Cha = N[C@@H](CC1CCCCC1)C(=O)O; NMeA = CN[C@@H](C)C(=O)O; CO = O=C([*:1])[*:2]; Sar = CNCC(=O)O

Legend:
Myostatin = target: T1, Myostatin (Homo sapiens, UniProt O14793); assay: HepG2 reporter gene assay, Evaluation Procedure (2): 2-concentrations assay, myostatin inhibition; type: cell-based; conditions: HepG2
T1 construct: active myostatin (also called mature myostatin) is a homodimer consisting of two C-terminal growth factor domains; purchased R&D systems 788-G8/CF
T1 sequence (O14793 267-375): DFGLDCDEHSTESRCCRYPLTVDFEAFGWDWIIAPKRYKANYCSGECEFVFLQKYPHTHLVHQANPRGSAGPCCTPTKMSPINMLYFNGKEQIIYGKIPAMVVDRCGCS
Outline: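 Myostatin inhibition was measured in a luciferase reporter assay using HepG2 cells transfected with a pGL3 vector containing 12 CAGA repeats upstream of luciferase. After 20 to 24 hours with 10 ng/mL myostatin, cells received One-Glo:PBS (1:1) at 100 µL/well, were shaken for 5 min, and 20 µL/well was moved to 384-well plates and read on an Envision 2104.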

GDF-11 = target: T2, GDF-11 (Homo sapiens, UniProt O95390); assay: HepG2 reporter gene assay, Evaluation Procedure (2): 2-concentrations assay, GDF-11 inhibition; type: cell-based; conditions: for inhibition: read-out: inhibition rate (GDF-11 inhibition assay)
T2 construct: purchased R&D systems 1958-GD-G8/CF
T2 sequence (O95390 299-407): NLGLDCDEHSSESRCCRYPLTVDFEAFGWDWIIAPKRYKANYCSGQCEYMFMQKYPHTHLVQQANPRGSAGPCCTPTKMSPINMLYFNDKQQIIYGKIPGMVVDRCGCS
Outline: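 HepG2 cells carrying the transfected pGL3(CAGA)12-luc reporter, a pGL3 vector with luciferase placed downstream of 12 CAGA repeats, were stimulated with GDF-11 at a final 10 ng/mL together with test peptide. Blank wells received no GDF-11 and no peptide. Plates were incubated 20 to 24 hours at 37°C with 5% CO2. Luminescence from One-Glo substrate was read to calculate percent inhibition.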

[1] = Table 7-3/7-4, myostatin 10 ng/mL, peptide at the higher of the 2 concentrations, read-out: inhibition rate (myostatin inhibition assay)
[2] = Table 7-3/7-4, myostatin 10 ng/mL, peptide at the lower of the 2 concentrations, read-out: inhibition rate (myostatin inhibition assay)
[3] = HepG2, first GDF-11 column of Table 7-3/7-4, GDF-11 10 ng/mL, peptide at the lower of the 2 concentrations
[4] = HepG2, second GDF-11 column of Table 7-3/7-4, GDF-11 10 ng/mL, peptide at the higher of the 2 concentrations

For `CCCCCCCCCC[C@@H]1NC(=O)[C@H](CC2CCCCC2)NC(=O)[C@H](CCCNC(=N)N)NC(=O)[C@H](Cc2ccc(C(=O)O)cc2)NC(=O)[C@H](Cc2cccc(OCC(=O)O)c2)NC(=O)CN(C)C(=O)[C@H]([C@@H](C)CC)NC(=O)[C@H](Cc2ccccc2)N(C)C(=O)[C@H](Cc2ccc(O)cc2)NC(=O)[C@H](Cc2c[nH]c3ccccc23)NC(=O)[C@H](C)NC(=O)[C@H](CCCCNC(=O)N2CCN(CC(=O)O)CC2)NC(=O)CSC[C@H](C(=O)N2CCN(CC(=O)O)CC2)NC(=O)[C@H](Cc2ccccc2)N(C)C(=O)[C@H](C)N(C)C1=O` [Myostatin_99_v259] ({CH2CO}-K([CO-Piperazinyl(4-CH2COOH)])AWY[NMeF]I[Sar][Phe(3-OCH2COOH)][Phe(4-COOH)]R[Cha][Gly(decyl)][NMeA][NMeF][dC]-{Piperazinyl(4-CH2COOH)}; thioether N-15), which inhibition at 0.03 µM (Myostatin; peptide 30nM, Myostatin 10 ng/mL, read-out: Myostatin Inhibition 30nM) is on record?
The inhibition at 0.03 µM was 100%.

What about the inhibition at 0.1 µM (Myostatin; peptide 100nM, Myostatin 10 ng/mL, read-out: Myostatin Inhibition 100nM) of the same compound?
Its inhibition at 0.1 µM is 100%.

And the inhibition at 0.03 µM (GDF-11; HepG2, peptide 30nM, GDF-11 10 ng/mL, read-out: GDF11 Inhibition 30nM)?
The inhibition at 0.03 µM was 0%.

What about the inhibition at 0.1 µM (GDF-11; HepG2, peptide 100nM, GDF-11 10 ng/mL, read-out: GDF11 Inhibition 100nM) of the same compound?
Its inhibition at 0.1 µM is 28%.

How did the inhibition at 0.1 µM (Myostatin; [1]) turn out when `CCCCCCC[C@@H]1NC(=O)[C@H](Cc2ccccc2)N(C)C(=O)[C@H](CCCNC(=N)N)NC(=O)[C@H](Cc2ccc(C(=O)O)cc2)NC(=O)[C@H](Cc2cccc(OCC(=O)O)c2)NC(=O)CN(C)C(=O)[C@H]([C@@H](C)CC)NC(=O)[C@H](Cc2ccc(OC)cc2)N(C)C(=O)[C@H](Cc2ccc(O)cc2)NC(=O)[C@H](Cc2c[nH]c3ccccc23)NC(=O)[C@H](C)NC(=O)[C@H](C)NC(=O)CSC[C@H](C(=O)N2CCN(CC(=O)O)CC2)NC(=O)[C@H](Cc2ccccc2)N(C)C(=O)[C@H](C)N(C)C1=O` [Myostatin_99_v307] ({CH2CO}-AAWY[NMeY](Me)I[Sar][Phe(3-OCH2COOH)][Phe(4-COOH)]R[NMeF][X1][NMeA][NMeF][dC]-{Piperazinyl(4-CH2COOH)}; thioether N-15) was run?
The inhibition at 0.1 µM was 98%.

And the inhibition at 0.03 µM (Myostatin; [2])?
Its inhibition at 0.03 µM is 89%.

And the inhibition (GDF-11; [3])?
Its inhibition is 0%.

And the inhibition (GDF-11; [4])?
The inhibition was 12%.

With `CCCCCCC[C@@H]1NC(=O)[C@H](Cc2ccccc2)N(C)C(=O)[C@H](CCCNC(=N)N)NC(=O)[C@H](Cc2ccc(C(=O)O)cc2)NC(=O)[C@H](Cc2cccc(OCC(=O)O)c2)NC(=O)[C@H](C)N(C)C(=O)[C@H]([C@@H](C)CC)NC(=O)[C@H](Cc2ccccc2)N(C)C(=O)[C@H](Cc2ccc(O)cc2)NC(=O)[C@H](Cc2c[nH]c3ccccc23)NC(=O)[C@H](C)NC(=O)[C@H](C)N(C)C(=O)[C@H](C)N(C)C(=O)CNC(=O)[C@H](Cc2ccccc2)N(C)C(=O)[C@H](C)N(C)C1=O` [Myostatin_99_v455] (cyclo(AWY[NMeF]I[NMeA][Phe(3-OCH2COOH)][Phe(4-COOH)]R[NMeF][X1][NMeA][NMeF]G[NMeA][NMeA])) as the compound, how does the inhibition at 0.1 µM (Myostatin; [1]) read?
The inhibition at 0.1 µM was 100%.

What about the inhibition at 0.03 µM (Myostatin; [2]) of the same compound?
The inhibition at 0.03 µM was 99%.

And the inhibition (GDF-11; [3])?
The inhibition was 1%.

And the inhibition (GDF-11; [4])?
The inhibition was 0%.

What does the source list for `CCCCCCC[C@@H]1NC(=O)[C@H](Cc2ccccc2)N(C)C(=O)[C@H](CCCNC(=N)N)NC(=O)[C@H](Cc2ccc(C(=O)O)cc2)NC(=O)[C@H](Cc2cccc(OCC(=O)O)c2)NC(=O)CN(C)C(=O)[C@H]([C@@H](C)CC)NC(=O)[C@H](Cc2ccccc2)N(C)C(=O)[C@H](Cc2ccc(O)cc2)NC(=O)[C@H](Cc2cn(Cc3ccccc3)c3ccccc23)NC(=O)[C@H](C)NC(=O)[C@H](C)NC(=O)CSC[C@H](C(=O)N2CCN(CC(=O)O)CC2)NC(=O)[C@H](Cc2ccccc2)N(C)C(=O)[C@H](C)N(C)C1=O` [Myostatin_99_v312] ({CH2CO}-AA[X10]Y[NMeF]I[Sar][Phe(3-OCH2COOH)][Phe(4-COOH)]R[NMeF][X1][NMeA][NMeF][dC]-{Piperazinyl(4-CH2COOH)}; thioether N-15)?
inhibition at 0.1 µM (Myostatin; [1]): 100%; inhibition at 0.03 µM (Myostatin; [2]): 98%; inhibition (GDF-11; [3]): 0%; inhibition (GDF-11; [4]): 6%
